Measured values as given in a melting point compilation (Tetko et al.; mined from patent text by program, amines drawn as free bases though some values may be those of a salt).

Structure (SMILES) | melting point
Cc1ccc(-c2ccc(S(C)(=O)=O)cc2)n1-c1ccc(-c2cccs2)cc1 | 185 to 186 °C
OCCNc1nnc(-c2ccc(F)c(F)c2Nc2ccc(I)cc2F)o1 | 100 to 103 °C
Cc1cc(F)c(N)cc1O | 147 °C
CCOC(=O)NNc1ccc(-c2ccc(Br)cc2)nn1 | 190 to 192 °C
Nc1ccc(NC(=O)Nc2cccc(C(F)(F)F)c2)c(O)c1 | 200 to 202 °C
CCOC(=O)c1c[nH]c2ccc(Cc3ccccc3)cc2c1=O | 265 to 270 °C
Brc1c(OCc2ccc3ccccc3n2)ccc2ccccc12 | 130 to 132 °C
Nc1ccc(OS(=O)(=O)c2ccc(-n3ccnc3)cc2)cc1[N+](=O)[O-] | 209 °C
O=C(NCc1ccc(Cl)cc1)c1cnc2c(F)cc(C#CCCCO)cc2c1O | 208 to 209 °C
O=C(O)C1CCCc2c(-c3ccc(Cl)cc3)noc2CC1 (configuration not stated) | 147 to 150 °C
Cc1nc(C)c(CC#N)cc1CC#N | 65 to 67 °C
Cc1ncc(C(=O)N2CCCCC2)s1 | 68.7 °C
Cc1ccc(NC(=O)C(C)C)c(-c2ccnc(SC(F)(F)F)n2)c1 | 114 to 116 °C
N#Cc1cccc(C(=O)Cn2cncn2)c1 | 172 to 173 °C
CC1Oc2c(cc(CN3CCN(c4ccc(C(=O)NC5CC5)cc4)CC3)cc2C2CC2)NC1=O (configuration not stated) | 202 to 207 °C
CN(C)CCCOc1cc(F)c(-c2c(Cl)nc3nccn3c2NCC(F)(F)F)c(F)c1 | 52 to 55 °C
CCOC(=O)c1c(C)nc(N2CCN(C)CC2)c([N+](=O)[O-])c1Cl | 59 to 61 °C
COc1cc2c(cc1OCC(=O)O)C1Cc3c(Cl)cc(OC)c(OCC(=O)O)c3CN1CC2 (configuration not stated) | 202 to 204 °C
CCCOc1cc(C2(C)CNC(=O)O2)ccc1OC (configuration not stated) | 78 °C
CC(=O)N(c1ccc(F)cc1Cl)S(=O)(=O)CCl | 89 to 92 °C

Structure (SMILES) | melting point
CCN1c2ncccc2C(=O)Nc2c(C)cc(-n3ccnc3)nc21 | 243 to 245 °C
CCS(=O)(=O)Oc1cn(C)c2cc(F)ccc2c1=O | 154 to 156 °C
CCOP(=O)(OCC)c1nc(N(CC)CC)nc(N(CC)CC)n1 | 45 to 46 °C
CC(C)NC(=O)N1CCC(O[N+](=O)[O-])CC1 | 93 to 95 °C
CN1CC=C(c2c[nH]c(-c3ccc(F)cc3)c2-c2ccncc2)CC1Cc1ccccc1 (configuration not stated) | 198 to 199 °C
CCOC(=O)c1c(C)noc1NS(=O)(=O)c1ccccc1-c1ccc(CC(C)C)cc1 | 133 to 134 °C
COc1ccc2c(c1)c(CC(=O)O)c(C)n2C(=O)c1ccc(Cl)c(Cl)c1 | 95 to 97 °C
COc1c2c(cc3ccc(=O)oc13)CC(O)O2 (configuration not stated) | 135 to 137 °C
O=C1c2ccccc2C(=O)N1Nc1ccccc1 | 180 °C
CC(C=CCC(C)(O)CO)C1CCC2C(O)CCCC12C (configuration not stated) | 87 to 88 °C
CC(=O)Nc1cc(C)cc(Br)n1 | 190 °C
Nc1nc2c(ncn2COCC=O)c(=O)[nH]1 | 350 °C
COCc1c2c(n(Cc3ccccc3)c1-c1ccccc1)C(C)CN(Cc1ccccc1)C2 (configuration not stated) | 140 to 141 °C
COC(=O)CC(NC(=O)OC(C)(C)C)c1ccc(O)cc1 (configuration not stated) | 119 to 120 °C
CCOC(=O)C1CCC(C(=O)OCC)N1C(=O)C(N)Cc1c[nH]c2ccccc12 (configuration not stated) | 144 to 149 °C
COc1cc2c(c(OC)c1OC)-c1ccc(SC)c(=O)cc1C(N)CC2 (configuration not stated) | 168 to 170 °C
CCOC(=O)c1cccn2c(S(=O)(=O)Cl)c(C)nc12 | 182 to 183 °C
CS(=O)(=O)N1C[C@H](S)C[C@H]1COC(=O)Nc1ccccc1 | 148 °C
O=C(NCC1Cc2cc(Cl)c3ccccc3c2O1)OCc1ccccc1 (configuration not stated) | 117 to 119 °C
O=C1CNC(=S)N1c1ccc2nc(S)sc2c1 | > 266 °C

Structure (SMILES) | melting point
COCC1CN(c2ccc(C3CCCCC3)c(O)c2)C(=O)O1 (racemic) | 207 to 208 °C
C=CCOC(=O)Nc1nsc(N)n1 | 159 to 161 °C
CC1(c2ccc([N+](=O)[O-])cc2)C(=O)Nc2cc(Cl)cc(Cl)c2C1=O (configuration not stated) | 264 to 265 °C
Cc1cccc(C)c1NCC(=O)N1CCCO1 | 82 to 83 °C
CN(C(=O)Cc1ccc([N+](=O)[O-])cc1)C1c2ccccc2CCC1N1CCCC1 (configuration not stated) | 135 °C
CC(=O)N[C@@H](CSC(=O)C(C)(C)C)C(=O)NCCSC(=O)C(C)C | 103 to 104 °C
C[C@H](N)Cn1ncc2ccc3oc(C(=O)NCC(C)(C)CO)cc3c21 | 103 °C
NC(=O)Nc1ccc(C2=NNC(=O)Cc3cc4c(cc32)OCO4)cc1 | 238 to 241 °C
CCCN1CC(c2ccc(F)cc2)=C(c2ccc(S(C)(=O)=O)cc2)C1=O | 150 to 152 °C
C#Cc1cc(C=Cc2cc(C(C)(C)C)cc(C(C)(C)C)c2)cc(C=Cc2cc(C(C)(C)C)cc(C(C)(C)C)c2)c1 | 156 to 157 °C
COC(=O)c1cn2c(n1)COc1ccc(N)cc1-2 | 213 to 214 °C
C#CCN1CSCC1=O | 29 to 31 °C
BrCCC=C1c2ccccc2C=Cc2ccccc21 | 88 to 89 °C
C[C@@H]1Cc2cc(N3C[C@H](COS(C)(=O)=O)OC3=O)ccc2N1C(=O)OCc1ccccc1 | 72 to 73 °C
Oc1ccc(-c2nc(-c3ccc(Sc4ccccc4)cc3)nc(-c3ccc(O)cc3O)n2)c(O)c1 | > 250 °C
C#CCOc1cc(-n2c(Cl)c(C#N)n(CCC)c2=O)c(F)cc1Cl | 122 °C
Oc1cnn(-c2ccc(Cl)cc2)c1 | 127 to 128 °C
O=C(c1ccc(C(F)(F)F)cc1)c1ccc(O)cn1 | > 260 °C

The remaining lines, values ahead:

melting point | Structure (SMILES)
207 to 208 °C | CN(CCCNC1=CC(=O)c2sc(C(=O)N3CCOCC3)nc2C1=O)CCCNC1=CC(=O)c2sc(C(=O)N3CCOCC3)nc2C1=O
122 to 123 °C | COc1ccc(CC(=O)O)cc1OCCCc1cn(-c2ccc(C(F)(F)F)cn2)nc1C(C)C
171 °C | FC(F)(F)c1cccc(-c2cc(C(F)(F)F)n3ncc(-c4cccnc4)c3n2)c1
213 to 214 °C | Cc1oc(-c2ccc3ccccc3c2)nc1C=Cc1ccc(/C=C/C=O)cc1
167 °C | CCCCNc1nc(N)nc(N)n1
163 to 164 °C | CCO[C@@H](Cc1ccc(OCCc2nc(-c3ccc(-c4ccccc4)cc3)oc2C)c2ccsc12)C(=O)O
221 to 222 °C | CN(c1ccc(Br)cc1)c1nc(=O)c2cccnc2s1
64 to 67 °C | CC(=O)N(CC(C)O)c1c(C)cccc1C (configuration not stated)
78 to 79 °C | CCOC(=O)c1cc2c(C)cccc2n1CCC(=O)OC(C)(C)C
180 to 182 °C | CC1c2cccn2-c2ccc(F)cc2N1S(=O)(=O)c1ccc(O)cc1 (configuration not stated)
278 °C | NS(=O)(=O)c1ccc(-c2noc(-c3cnn4c(C(F)F)cc(-c5ccc(C(F)(F)F)cc5)nc34)n2)s1
129 to 130 °C | CCOC(=O)C(=CNC1CC1)C(=O)c1cc(F)c(Cl)nc1Cl
280 °C | CCC1(O)c2cc3n(c(=O)c2COC1O)Cc1cc2ccccc2nc1-3 (configuration not stated)
267 to 268 °C | Nc1nc(-c2ccc(F)cc2)c(CC(=O)O)s1
265 °C | O=C(CC12CC3CC(CC(C3)C1)C2)Nc1ccc2[nH]ncc2c1
280 to 281 °C | O=C(CCl)Nc1cccc2c1C(=O)c1c(NC(=O)CCl)cccc1C2=O
132 °C | CCOC(=O)c1nc2c(Cl)nc(Cl)c(Cl)n2c1Cl
123 to 125 °C | COc1ccc(CCc2ccc(-n3c(C)nc4cnccc43)cc2)cc1OC1CCCC1
221 °C | O=C(O)CN1C(=O)C(=Cc2ccc(OCCc3ccc(F)cc3)c(OCc3ccccc3)c2)SC1=S
44 to 45 °C | c1cncc(-c2nccs2)c1
149 to 150 °C | COc1ccc(C[N+](=O)[O-])c(C=CC[N+](=O)[O-])c1OCc1ccccc1
131 to 133 °C | COc1ccc(-c2cnn3ccc(-c4ccc(OCCCNC(=O)OC(C)(C)C)c(OC)c4)nc23)cc1OC

melting point | Structure (SMILES)
290 to 292 °C | N#Cc1ccc(-c2cccc(-c3cn4cc(C#N)ccc4n3)c2)cc1
124 to 126 °C | CCCCC(=O)Nc1c(C(=O)c2cccc(C)c2)[nH]c2cc(Cl)ccc12
88 °C | CC(C)C[C@H](NC(=O)N1CCN(c2ccccc2)CC1)C(=O)OCc1ccccc1
273 to 275 °C | Cc1nc(-n2cnn(CC3CC3(F)F)c2=O)sc1C(N)=O (configuration not stated)
196 to 197 °C | O=c1nccc2sc3cc(-c4ccccc4)ccc3n12
61 to 62 °C | OC(/C=C/c1cc(C(F)(F)F)ccc1Cl)(CF)CF
110 to 111 °C | COc1ccc(OC)c2c(C#C[Si](C)(C)C)c3ccccc3nc12
188 to 191 °C | CC(C)(c1ccccc1)c1cccc(S(=O)(=O)NC(CCCNC(=N)N)C(=O)N2CCC(CC(=O)O)CC2)c1 (configuration not stated)
197 to 200 °C | CCc1c(OC)nc2nc(-c3noc(C(F)(F)F)n3)cn2c1C
117 °C | Cc1cc(C)nc(-c2cccc(-c3ccccc3)n2)n1
85 to 88 °C | O=C(c1ccc(-c2ccccc2)cc1)C(Br)CCCl (configuration not stated)
236 °C | COc1ccc(C(=O)O)cc1C(=O)NCc1ccc(C(F)(F)F)cc1
58 to 60 °C | C[C@@H](S[C@H]1CO[C@H](c2ccccc2)OC1)[C@](O)(Cn1cncn1)c1ccc(F)cc1F
141 to 143 °C | COC(=O)C1=C(C=O)NC(C)=C(C(=O)OCC(C)(C)C)C1c1ccccc1C#N (configuration not stated)
60 to 61 °C | CC(NC(=O)CBr)c1ccccc1 (configuration not stated)
145 to 146 °C | CCOC(=O)Nc1ccc2c(c1)CCSCC2=O
133 to 135 °C | COc1ccc(-c2cc(CN3CCN(CCO)CC3)c(=O)n(CC=Cc3ccc(Cl)cc3)n2)cc1F
145 to 147 °C | CC(C)CCS(=O)(=O)NC(=O)/C=C/c1cc(C2CC2)nn1Cc1ccc(C(F)(F)F)cc1Cl
> 280 °C | CN(C)N=C(N)Nc1c(Cl)cccc1Cl
122 to 126 °C | O=C1c2cccc(OCc3ccccc3)c2C(=O)c2c(Cl)ccc(Cl)c21
113 to 114 °C | CCOC(=O)c1cn(Cc2ccc(OCc3nc(-c4ccccc4)oc3C)cc2)nc1-c1cccs1
126 to 128 °C | COc1cc2c(c(OC)c1)C(Cc1ccc(-c3ccccc3OC)cc1)N(C(=O)OC(C)(C)C)CC2 (configuration not stated)
